Columns and labels:
[1] = molecular target: recombinant human HDAC6 (Homo sapiens (Human), UniProt Q9UBN7); test: Enzyme inhibitory activity assay on HDAC6; assay type: biochemical; settings: 30 minutes preincubation at 25° C.
Method: (§1) For each test compound, 100× concentrated DMSO solutions at 8 doses were prepared and then diluted in assay buffer (25 mM Tris-HCl, pH 8, 130 mM NaCl, 0.05% Tween-20, 10% Glycerol) to obtain 5× concentrated solutions in relation to the final concentrations (typical final concentration range—6.4-200000 nM or 0.18-50000 nM, final DMSO content—1%). Then 10 μL solution of each test compound concentration were placed on a 96-well plate in triplicate and 15 μL of 3.33× concentrated enzyme solution in the assay buffer containing 3.33× concentrated BSA (final BSA concentration 1 mg/mL) and, in case of HDAC6, 3.33× concentrated TCEP (final TCEP concentration—200 μM) were added to each well. After a period of preincubation at 25° C. (30 minutes for HDAC6 and 120 minutes for HDAC1), 25 μL of solution containing the substrate were added. As substrate, FLUOR DE LYS® deacetylase substrate (Enzo Life Sciences, cat: BML-KI104, FdL), FLUOR DE LYS®-Green substrate (Enzo Life Sciences, cat: BML-KI572, FdL_G) or Boc-Lys(Tfa)-AMC (Bachem, cat: 4060676.005, Tfal)—2× concentrated solution in assay buffer were used. Following a reaction period (30 minutes at 25° C.), 50 μL of the development solution consisting of concentrate FLUOR DE LYS® developer I (Enzo Life Sciences, ca: BML-KI105), diluted 200 times in buffer (50 mM Tris-HCl, pH 8, 137 mM NaCl, 2.7 mM KCl, 1 mM MgCl2) plus 2 μM TSA was added and, after 25 minutes at room temperature in the dark, using the Victor 1420 Multilabel Counter Perkin Elmer Wallac instrument, the fluorescence reading was carried out (excitation/emission: 485/535 nM—Fluor de Lys Green, 355/460 nM—Tfal, Fluor de Lys).
(§2) Enzymatic activity on recombinant human HDAC6 and HDAC1 was evaluated (Table 2) for each synthesized compound.

[2] = system: human B cell precursor leukemia 697; test: In vitro α-tubulin acetylation in 697 cell line; assay type: cell-based; settings: Homo sapiens, B-cell, 16 h; read-out: TubAc 697 cells EC50
Method: The in vitro α-tubulin acetylation was evaluated on human B cell precursor leukemia 697.
The 697 cells were maintained in RPMI Medium 1640 (Gibco, cat: 21875-034) supplemented with 10 mM HEPES (Gibco, cat: 15630-080), Pen-Strep (Penicillin 100 U/ml, Streptomycin 100 μg/ml, Gibco, cat: 15140-122) and 10% fetal bovine serum (Gibco, cat: 10270-106).
The cells were plated in 12-well plates (Costar, cat: 3512) at the density of 5.5×10^5 cells/ml.
Serial dilutions of test compounds in DMSO were prepared using 20 mM stock solutions to obtain 8 doses 200× concentrated in respect to final doses (2.7-100000 nM). Then the DMSO solutions were diluted 10× in culture medium to obtain 20× concentrated solutions which were used for cells treatment (125 μl of medium solutions were added to 2.375 ml of cells suspension). The final DMSO content was set as 0.5%. The plates were incubated at 37° C., 5% CO2 for 16 hours.
At the end of the incubation period, the cells were harvested and centrifuged for 5 minutes at 200×g and washed with 0.9% NaCl at 4° C. The resulting pellet was treated for 30 minutes at 4° C. with 100 μl Complete Lysis-M buffer containing protease inhibitors (Complete Lysis-M Roche+Complete Tablets, Mini Easypack, cat: 4719956001) and phosphatase inhibitor cocktails (PhosStop Easypack, Roche, cat: 4906837001) and then centrifuged 10 minutes at 18213×g. The protein concentration in each supernatant was determined using BCA Protein Assay Kit (Pierce, cat: 23227). The samples were diluted in PBS 1× to obtain 2 μg/ml concentration and coated in MaxiSorp 96-well plates (Nunc, cat: 442404). The plates were incubated overnight at room temperature.
Plates were washed twice with Wash Buffer (PBS 1×+0.005% tween 20) and saturated for 1 hour at room temperature with 300 μL of 1×PBS containing 10% FBS. After washing twice with Wash Buffer, the plates were incubated for 2 hours at room temperature in the presence of 100 μl/well either anti-acetylated-α-tubulin antibody (Monoclonal Anti-Tubulin, Acetylated antibody produced in mouse, Sigma-Aldrich, cat: T6793) or total anti-α-tubulin antibody (Monoclonal Anti-α-Tubulin produced in mouse, Sigma-Aldrich, cat: T6074) diluted 1:1000 in 1×PBS containing 10% FBS. Following 5 washing cycles with Wash Buffer the secondary antibody conjugated with the enzyme HRP (Goat anti-Mouse IgG, IgM, IgA (H+L), stock concentration 0.5 mg/ml, Thermo Fisher Scientific, cat: A10668), diluted 1:1000 in 1×PBS+10% FBS was added at the volume of 100 μl/well. After two hours of incubation at room temperature the plates were washed 4 times with Wash Buffer, then 100 μl/well of TMB substrate (TMB substrate kit, Thermo Fisher Scientific, cat: 34021) was added for 10 minutes at room temperature in the dark. The reaction was stopped by adding 50 μl of 2M H2SO4. The plates were read in BioTek Synergy H1 multimode microplate reader at a wavelength of 450 nm.
The measured absorbance was corrected by subtracting the mean of blank values (samples without the primary antibody). The absorbance ratios of acetyl to total tubulin assays were calculated and normalized to the reference compound (positive control) 4 parameter logistic curve, where 0% is the fitted bottom and 100% is the fitted top of the curve. The results are expressed as relative EC50.

[3] = molecular target: recombinant human HDAC1 (Homo sapiens (Human), UniProt Q13547); test: Enzyme inhibitory activity assay on HDAC1; assay type: biochemical; settings: 120 minutes preincubation at 25° C.
Method: as §1, §2

[4] = system: HDAC6; test: Kinetic of prodrug disappearing when incubated with HDAC6 (LC-HRMS); assay type: biochemical; settings: HDAC6 1 μM, 5 μM compound, 25° C.; for half-life at 5 µM: HDAC6 enzyme in assay buffer, read-out: T1/2 of prodrug disappearing
Method: The LC-HRMS analysis was carried out using a Vanquish Flex UHPLC (Thermo Fisher Scientific) and a high-resolution mass spectrometer Orbitrap QExactive Focus (Thermo Fisher Scientific), equipped with a Heated Electrospray Ionization, operated in positive mode. A Full Scan analysis was set in the m/z range 50-500 amu. A XSelect HSS T3 50×2.1 mm, 2.5 μm chromatographic column (Waters) was used. Mobile phase A consisted of 0.1% formic acid in water and mobile phase B in 0.1% formic acid in acetonitrile. The flow rate was set to 0.5 mL/min, with a gradient program from 3 to 20% B in 3 minutes.

Sequence of recombinant human HDAC6 (Q9UBN7 whole entry): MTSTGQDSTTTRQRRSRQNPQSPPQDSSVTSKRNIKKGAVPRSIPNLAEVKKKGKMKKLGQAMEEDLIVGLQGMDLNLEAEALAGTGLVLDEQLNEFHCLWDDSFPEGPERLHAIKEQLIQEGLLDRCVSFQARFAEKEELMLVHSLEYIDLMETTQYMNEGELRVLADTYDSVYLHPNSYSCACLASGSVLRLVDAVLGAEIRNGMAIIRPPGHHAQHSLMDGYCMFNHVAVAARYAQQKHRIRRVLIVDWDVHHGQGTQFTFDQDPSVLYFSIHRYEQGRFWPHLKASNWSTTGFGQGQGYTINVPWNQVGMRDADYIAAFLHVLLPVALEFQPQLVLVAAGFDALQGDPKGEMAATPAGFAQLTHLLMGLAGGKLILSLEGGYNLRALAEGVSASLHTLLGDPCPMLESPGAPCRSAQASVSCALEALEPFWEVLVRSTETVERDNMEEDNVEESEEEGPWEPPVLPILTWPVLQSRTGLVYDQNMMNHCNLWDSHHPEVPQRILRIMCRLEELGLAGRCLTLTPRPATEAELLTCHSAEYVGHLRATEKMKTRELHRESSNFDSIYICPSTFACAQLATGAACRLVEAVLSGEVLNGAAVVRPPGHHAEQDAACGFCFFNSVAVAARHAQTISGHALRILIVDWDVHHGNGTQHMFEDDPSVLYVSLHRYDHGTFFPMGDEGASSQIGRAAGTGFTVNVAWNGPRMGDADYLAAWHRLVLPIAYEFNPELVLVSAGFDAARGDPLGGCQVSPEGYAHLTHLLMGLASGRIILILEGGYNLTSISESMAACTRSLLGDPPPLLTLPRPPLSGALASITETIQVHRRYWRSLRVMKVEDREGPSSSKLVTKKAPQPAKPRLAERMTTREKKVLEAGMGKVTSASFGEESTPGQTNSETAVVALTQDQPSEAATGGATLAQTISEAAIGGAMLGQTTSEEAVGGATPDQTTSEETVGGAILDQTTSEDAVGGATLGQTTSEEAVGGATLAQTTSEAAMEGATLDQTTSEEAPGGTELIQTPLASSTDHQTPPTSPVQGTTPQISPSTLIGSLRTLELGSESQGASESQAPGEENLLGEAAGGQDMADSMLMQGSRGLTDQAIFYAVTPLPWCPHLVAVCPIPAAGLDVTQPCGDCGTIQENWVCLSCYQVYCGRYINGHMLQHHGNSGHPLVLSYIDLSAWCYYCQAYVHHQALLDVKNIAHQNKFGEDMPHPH
Sequence of recombinant human HDAC1 (Q13547 whole entry): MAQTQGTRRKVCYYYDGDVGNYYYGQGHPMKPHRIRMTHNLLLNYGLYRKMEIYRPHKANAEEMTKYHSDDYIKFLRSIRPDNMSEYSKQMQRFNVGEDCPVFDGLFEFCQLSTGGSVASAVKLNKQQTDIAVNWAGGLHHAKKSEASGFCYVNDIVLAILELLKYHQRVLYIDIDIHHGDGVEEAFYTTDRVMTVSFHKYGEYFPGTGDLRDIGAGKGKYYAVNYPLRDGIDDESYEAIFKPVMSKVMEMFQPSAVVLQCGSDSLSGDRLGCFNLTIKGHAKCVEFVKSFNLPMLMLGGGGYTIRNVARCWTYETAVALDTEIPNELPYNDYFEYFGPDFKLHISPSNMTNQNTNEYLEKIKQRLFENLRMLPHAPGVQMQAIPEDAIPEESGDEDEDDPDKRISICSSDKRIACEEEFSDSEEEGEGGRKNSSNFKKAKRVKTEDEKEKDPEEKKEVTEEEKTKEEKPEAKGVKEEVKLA

IC50 [1] | EC50 [2] | IC50 [3] | half-life at 5 µM [4] | SMILES | further results
65 nM | 419 nM | > 100000 nM |  | Cc1ccc(-c2cn(Cc3ccc(-c4nnc(C(F)F)o4)cn3)nn2)cc1 [Compound 8-A] | 
40 nM | 385 nM | > 100000 nM |  | Cc1cccc(-c2cn(Cc3ccc(-c4nnc(C(F)F)o4)cn3)nn2)c1 [Compound 9-A] | 
57 nM | 346 nM | > 100000 nM |  | CC(=O)Nc1cccc(-c2cn(Cc3ccc(-c4nnc(C(F)F)o4)cc3F)nn2)c1 [Compound 12-A] | 
100 nM |  | > 100000 nM |  | Fc1cc(-c2nnc(C(F)F)o2)cnc1Cn1cc(-c2ccccn2)nn1 [Compound 15-A] | 
40 nM | 1090 nM | > 100000 nM |  | FC(F)c1nnc(-c2ccc(Cn3nnc(-c4ccccc4)n3)nc2)o1 [Compound 16-A] | 
41 nM | 648 nM | > 100000 nM |  | FC(F)c1nnc(-c2ccc(Cn3nnc(-c4cccs4)n3)nc2)o1 [Compound 17-A] | 
56 nM | 582 nM | > 100000 nM |  | Fc1cccc(-c2cn(Cc3ccc(-c4nnc(C(F)F)o4)cn3)nn2)c1 [Compound 18-A] | 
31 nM | 579 nM | > 100000 nM |  | FC(F)c1nnc(-c2ccc(Cn3cc(-c4cccs4)nn3)nc2)o1 [Compound 19-A] | 
15 nM | 119 nM | > 100000 nM |  | FC(F)c1nnc(-c2ccc(Cn3cc(-c4ccc5[nH]ccc5c4)nn3)nc2)o1 [Compound 27-A] | 
 | 1390 nM |  |  | CC(c1ccc(-c2nnc(C(F)F)o2)cc1F)n1cc(-c2ccc3nc(N)sc3c2)nn1 (stereo not drawn) [Compound 30-A, 6-(1-(1-(4-(5-(difluoromethyl)-1,3,4-oxadiazol-2-yl)-2-fluorophenyl)ethyl)-1H-1,2,3-triazol-4-yl)benzo[d]thiazol-2-amine] | 
 |  |  | 129 min | Nc1nc2ccc(-c3cn(Cc4ccc(-c5nnc(C(F)F)o5)c(Cl)c4)nn3)cc2s1 [Compound 31-A] | 
20 nM | 167 nM | > 100000 nM |  | FC(F)c1nnc(-c2ccc(Cn3cc(-c4cccc5[nH]ncc45)nn3)nc2)o1 [Compound 34-A] | 
54 nM | 167 nM | > 100000 nM |  | Fc1cc(-c2nnc(C(F)F)o2)ccc1Cn1cc(-c2cccc3[nH]ccc23)nn1 [Compound 36-A] | 
44 nM | 849 nM | > 100000 nM |  | Fc1cc(-c2nnc(C(F)F)o2)cnc1Cn1cc(-c2cccc3[nH]ccc23)nn1 [Compound 40-A] | 
 |  |  | 40.5 min | Nc1ccc(-c2cn(Cc3c(F)cc(-c4nnc(C(F)(F)F)o4)cc3F)nn2)cn1 [Compound 42-A] | 
 |  |  | 23.1 min | Nc1ccc(-c2cn(Cc3ccc(-c4nnc(C(F)(F)F)o4)cc3F)nn2)cn1 [Compound 43-A] | 
 |  |  | 11.3 min | Nc1ccc(-c2cn(Cc3ccc(-c4nnc(C(F)(F)F)o4)c(F)c3)nn2)cn1 [Compound 44-A] | 
26 nM | 664 nM | > 100000 nM | 113 min | Nc1ccc(-c2cn(Cc3ccc(-c4nnc(C(F)F)o4)cc3)nn2)cn1 [Compound 45-A] | percentage of compound concentration (prodrug remaining) ([4]; time 0 min): 100.00%; percentage of compound concentration (prodrug remaining) ([4]; time 30 min): 79.9%; percentage of compound concentration (prodrug remaining) ([4]; time 60 min): 73.7%; percentage of compound concentration (prodrug remaining) ([4]; time 120 min): 47.8%; percentage of compound concentration (prodrug remaining) ([4]; time 240 min): 22.6%; percentage of compound concentration (prodrug remaining) ([4]; time 360 min): 11.6%; percentage of compound concentration (prodrug remaining) ([4]; time 480 min): 5.2%
 | 788 nM | > 100000 nM | 22.9 min | Nc1ccc(-c2cn(Cc3c(F)cc(-c4nnc(C(F)F)o4)cc3F)nn2)cn1 [Compound 46-A] | percentage of compound concentration (prodrug remaining) ([4]; time 0 min): 100.00%; percentage of compound concentration (prodrug remaining) ([4]; time 30 min): 42.4%; percentage of compound concentration (prodrug remaining) ([4]; time 60 min): 17.4%; percentage of compound concentration (prodrug remaining) ([4]; time 120 min): 2.7%; percentage of compound concentration (prodrug remaining) ([4]; time 240 min): 0.0%; percentage of compound concentration (prodrug remaining) ([4]; time 360 min): 0.0%; percentage of compound concentration (prodrug remaining) ([4]; time 480 min): 0.0%
 | 871 nM | > 100000 nM | 29.3 min | Nc1ccc(-c2cn(Cc3ccc(-c4nnc(C(F)F)o4)cc3F)nn2)cn1 [Compound 47-A] | percentage of compound concentration (prodrug remaining) ([4]; time 0 min): 100.00%; percentage of compound concentration (prodrug remaining) ([4]; time 30 min): 53.6%; percentage of compound concentration (prodrug remaining) ([4]; time 60 min): 29.7%; percentage of compound concentration (prodrug remaining) ([4]; time 120 min): 7.4%; percentage of compound concentration (prodrug remaining) ([4]; time 240 min): 0.4%; percentage of compound concentration (prodrug remaining) ([4]; time 360 min): 0.0%; percentage of compound concentration (prodrug remaining) ([4]; time 480 min): 0.0%
 | 29 nM |  |  | Nc1ccc(-c2cn(Cc3ccc(-c4nnc(C(F)F)o4)s3)nn2)cn1 [Compound 49-A] | 

— patent publication US20260049078A1, “DIFLUORO- AND TRIFLUORO-ACETYL HYDRAZIDES AS SELECTIVE HDAC6 INHIBITORS” (ITALFARMACO S.P.A., priority 2022, published 2026)
